Data set [1] deals with Human immunodeficiency virus type 1 protease (Human immunodeficiency virus 1, UniProt Q72874, Q7K). Put plainly: Inhibition of HIV1 subtype C protease Q7K mutant expressed in Escherichia coli BL21 (DE3) pLysS using Lys-Ala-Arg-Val-Nle-p-nitro-Phe-Glu-Ala-Nle-NH2 as substrate by spectrophotometry.
A further data set deals with MT4. Put plainly: Cytotoxicity against human MT4 cells after 5 days by XTT assay. The data set is classed as cell-based. To be noted: MT4, 120 h. For orientation: Formazan colour is commonly taken as a measure of viable cells.
A short description of data set [2]: Solubility of the compound in aqueous buffer at pH 5. The data set is classed as physicochemical.
Data set [3] can be described thus: Ratio of cytotoxicity for Lopinavir to compound for human MT4 cells after 5 days by XTT assay. It is filed as cell-based.

Structures are written as SMILES. Where a SMILES comes first, the peptide text is derived from it. The star is where a group is joined. X1 = Oc1cccc(N*)c1 Some results are limits rather than exact numbers.

For `CC[C@H](C)[C@H](NC(=O)[C@@H](N)CO)C(=O)N[C@@H](C)C(=O)N[C@@H](CCC(=O)O)C(=O)Nc1cccc(O)c1` (H-SIAE-X1), the IC50 – broadly, the concentration that inhibits the measured activity by half – in data set [1] worked out at 10 µM.
Regarding `CC[C@H](C)[C@H](NC(=O)[C@@H](N)CO)C(=O)N[C@@H](C)C(=O)N[C@@H](CCC(=O)O)C(=O)NC12NC(=O)C3(O)C4C5CC(C6C5C3C61)C42` (mixture of isomers), the half-inhibitory concentration (IC50) is 0.078 µM in data set [1] and 218 µM in the data set with MT4. The solubility entry in data set [2] is on record as “soluble”. In addition, in data set [3], the selectivity ratio at 120 h was found to be 6000.
In turn, `CC[C@H](C)[C@H](NC(=O)[C@@H](N)CO)C(=O)N[C@@H](C)C(=O)N[C@@H](CCC(=O)O)C(=O)NC12NC(=O)C3(OC(C)=O)C4C5CC(C6C5C3C61)C42` (mixture of isomers) gave an IC50 in data set [1] above 10 µM. Besides, the solubility entry in data set [2] is “soluble”. For the same molecule, the selectivity ratio at 120 h in data set [3] amounted to 6000.
Consider `CC[C@H](C)[C@H](N)C(=O)N[C@@H](C)C(=O)N[C@@H](CCC(=O)O)C(=O)NC12NC(=O)C3(O)C4C5CC(C6C5C3C61)C42` (mixture of isomers), for which the IC50 in data set [1] was 0.5 µM; in the data set on MT4 it was 216 µM. The solubility entry in data set [2] is given as “soluble”. Also, the selectivity ratio at 120 h in data set [3] is 6000.
Regarding `CC[C@H](C)[C@H](NC(=O)[C@@H](N)CO)C(=O)N[C@H](C(=O)N[C@@H](CCC(=O)O)C(=O)NC12NC(=O)C3(O)C4C5CC(C6C5C3C61)C42)C(C)C` (mixture of isomers), 2 µM corresponded to half-maximal inhibition in data set [1] (IC50). The solubility result in data set [2] is recorded as “soluble”. The selectivity ratio at 120 h in data set [3] was 6000.
Turning to `CC[C@H](C)[C@H](NC(=O)[C@@H](N)CO)C(=O)N[C@@H](C)C(=O)N[C@@H](CCC(N)=O)C(=O)NC12NC(=O)C3(O)C4C5CC(C6C5C3C61)C42` (mixture of isomers), half-maximal inhibition in data set [1] (IC50) was put at 5 µM. The solubility entry in data set [2] is reported as “soluble”. The selectivity ratio at 120 h in data set [3] worked out at 6000.
With `CC[C@H](C)[C@H](NC(=O)[C@@H](N)CO)C(=O)N[C@@H](C)C(=O)NC12NC(=O)C3(O)C4C5CC(C6C5C3C61)C42` (mixture of isomers; form 1), the IC50 in data set [1] was 0.5 µM; with MT4 it was above 300 µM. In data set [2], the solubility entry is “soluble”. In data set [3], the selectivity ratio at 120 h amounted to 6000.
Turning to `CC[C@H](C)[C@H](NC(=O)[C@@H](N)CO)C(=O)N[C@@H](C)C(=O)NC12NC(=O)C3(O)C4C5CC(C6C5C3C61)C42` (mixture of isomers; form 2), in data set [1], the IC50 came out at 10 µM.
Still for that read-out and setting: with `COC(=O)N[C@H](C(=O)N[C@@H](Cc1ccccc1)[C@@H](O)CN(Cc1ccc(-c2ccccn2)cc1)NC(=O)[C@@H](NC(=O)OC)C(C)(C)C)C(C)(C)C` [ATAZANAVIR] the figure was 0.004 µM.
Consider `Cc1cccc(C)c1OCC(=O)N[C@@H](Cc1ccccc1)[C@@H](O)C[C@H](Cc1ccccc1)NC(=O)[C@H](C(C)C)N1CCCNC1=O` [LOPINAVIR], for which the IC50 in the data set on MT4 came to 0.035 µM.
